Experimental data as given in patent publication US12240839B2, “Cyclobutyl dihydroquinoline sulfonamide compounds” (AMGEN INC., priority 2020, dated 2025).
Read-outs that look alike come from different tables or passages of the source.

Legend:
[1] = molecular target: Human Nav1.7 (Homo sapiens (Human), UniProt Q15858); assay: IonWorks Barracuda (IWB) automated patch clamp assay; assay type: cell-based; conditions: human Nav1.7 in HEK cells, population patch-clamp, state- and use-dependent voltage protocol; read-out: hNaV1.7 IWB-U IC50
Protocol: IonWorks Barracuda (IWB) Automated Patch Clamp Assay (Same Protocol for Both Human and Mouse)
Human Nav1.7 currents were recorded in population patch-clamp mode with the IWB automated electrophysiology system (Molecular Devices, LLC, Sunnyvale, CA). Spiking HEK cells (without Kir2.1 transfection) were cultured and prepared for recordings as previously described for IonWorks Quattro testing^1. The external solution consisted of the following (in mM): NaCl 140, KCl 5, CaCl2 2, MgCl2 1, HEPES 10, and glucose 11, pH 7.4, with N-methyl-D-glucamine at 320 mOsmol. […] From a holding potential of −110 mV, currents were elicited by a train of 26 depolarizations of 150 ms duration to −20 mV at a frequency of 5 Hz. Cells were then clamped to −20 mV for a period of 4 minutes in the presence of a single concentration of test compound. Following this compound incubation period, cells were clamped to −110 mV for three seconds to recover unbound channels and put through the same 26 pulse voltage protocol as above. Peak inward current during the 26th pulse to −20 mV in the presence of compound was divided by the peak inward current evoked by the 26th pulse to −20 mV in the absence of compound to determine percent inhibition. Concentration-response curves of percent inhibition as a function of concentration were generated to calculate IC50 values as described in Kornecook, T. J.; Yin, R.; Altmann, S.; et al. Pharmacologic Characterization of AMG8379, a Potent and Selective Small Molecule Sulfonamide Antagonist of the Voltage-Gated Sodium Channel NaV1. 7.
The potency of the compounds of the present invention were evaluated on human Nav1.7 channels using the above described IonWorks Barracuda automated electrophysiology platform that evaluates the ability of compounds to block sodium conductance through Nav1.7 channels. A voltage-protocol that prosecutes both state-dependent as well as use-dependent inhibition was used as these modes of action are thought to be more relevant for the native state of Nav1.7 channels in pain sensing neurons in vivo.

[2] = test system: CYP3A4; conditions: hepatocytes
Protocol: Human CYP3A4 Induction Assay
(§1) Cryopreserved human hepatocytes were seeded in 96-well collagen coated plates at 70,000 cells per well in hepatocyte plating media (HPM, final concentrations: 1× Dulbecco's Modified Eagle's Medium, 0.1 μM dexamethasone, 10% fetal bovine serum, 1×ITS, 1×PSG) followed by incubation at 37° C. under 5% CO2 and 90% relative humidity for 2 days to allow hepatocytes to form a confluent layer. On Day 3, hepatocytes were treated with either test compound or rifampin (20 μM, positive control for CYP3A induction) prepared in hepatocyte incubation media ((HIM, final concentrations: 1× William's Medium E, 0.1 μM dexamethasone, 1×ITS, 1×PSG). Treatment was performed for 72 hours with either 2 concentrations (2 μM or 10 μM) or a range of concentrations (0.001 μM to 100 μM) of the test compound to obtain full dose-response curve. Fresh media containing the relevant concentrations of the test compound was replaced every day until the samples were processed. After 72 hours of incubation, samples were processed for mRNA analysis using bDNA technology using manufacturer's instructions (Affymetrix, Fremont, CA). Cell viability was tested at the end of the experiment using MTT assay kit (Roche Diagnostics, Basel, Switzerland). Data was analyzed and presented as percent of control (POC) and Emax and EC50 obtained when appropriate according to guidance from Center for Drug Evaluation and Research (CDER), 2006, Guidance for Industry, Drug Interaction Studies—Study Design, Data Analysis, and Implications for Dosing and Labeling.

[3] = test system: CYP3A4; assay: Human CYP3A4 induction assay (mRNA, cryopreserved human hepatocytes); conditions: 10 uM test compound, 72 hours, percent of control (rifampin positive control)
Protocol: Human CYP3A4 Induction Assay
as §1

Human Nav1.7, sequence (Q15858 whole entry): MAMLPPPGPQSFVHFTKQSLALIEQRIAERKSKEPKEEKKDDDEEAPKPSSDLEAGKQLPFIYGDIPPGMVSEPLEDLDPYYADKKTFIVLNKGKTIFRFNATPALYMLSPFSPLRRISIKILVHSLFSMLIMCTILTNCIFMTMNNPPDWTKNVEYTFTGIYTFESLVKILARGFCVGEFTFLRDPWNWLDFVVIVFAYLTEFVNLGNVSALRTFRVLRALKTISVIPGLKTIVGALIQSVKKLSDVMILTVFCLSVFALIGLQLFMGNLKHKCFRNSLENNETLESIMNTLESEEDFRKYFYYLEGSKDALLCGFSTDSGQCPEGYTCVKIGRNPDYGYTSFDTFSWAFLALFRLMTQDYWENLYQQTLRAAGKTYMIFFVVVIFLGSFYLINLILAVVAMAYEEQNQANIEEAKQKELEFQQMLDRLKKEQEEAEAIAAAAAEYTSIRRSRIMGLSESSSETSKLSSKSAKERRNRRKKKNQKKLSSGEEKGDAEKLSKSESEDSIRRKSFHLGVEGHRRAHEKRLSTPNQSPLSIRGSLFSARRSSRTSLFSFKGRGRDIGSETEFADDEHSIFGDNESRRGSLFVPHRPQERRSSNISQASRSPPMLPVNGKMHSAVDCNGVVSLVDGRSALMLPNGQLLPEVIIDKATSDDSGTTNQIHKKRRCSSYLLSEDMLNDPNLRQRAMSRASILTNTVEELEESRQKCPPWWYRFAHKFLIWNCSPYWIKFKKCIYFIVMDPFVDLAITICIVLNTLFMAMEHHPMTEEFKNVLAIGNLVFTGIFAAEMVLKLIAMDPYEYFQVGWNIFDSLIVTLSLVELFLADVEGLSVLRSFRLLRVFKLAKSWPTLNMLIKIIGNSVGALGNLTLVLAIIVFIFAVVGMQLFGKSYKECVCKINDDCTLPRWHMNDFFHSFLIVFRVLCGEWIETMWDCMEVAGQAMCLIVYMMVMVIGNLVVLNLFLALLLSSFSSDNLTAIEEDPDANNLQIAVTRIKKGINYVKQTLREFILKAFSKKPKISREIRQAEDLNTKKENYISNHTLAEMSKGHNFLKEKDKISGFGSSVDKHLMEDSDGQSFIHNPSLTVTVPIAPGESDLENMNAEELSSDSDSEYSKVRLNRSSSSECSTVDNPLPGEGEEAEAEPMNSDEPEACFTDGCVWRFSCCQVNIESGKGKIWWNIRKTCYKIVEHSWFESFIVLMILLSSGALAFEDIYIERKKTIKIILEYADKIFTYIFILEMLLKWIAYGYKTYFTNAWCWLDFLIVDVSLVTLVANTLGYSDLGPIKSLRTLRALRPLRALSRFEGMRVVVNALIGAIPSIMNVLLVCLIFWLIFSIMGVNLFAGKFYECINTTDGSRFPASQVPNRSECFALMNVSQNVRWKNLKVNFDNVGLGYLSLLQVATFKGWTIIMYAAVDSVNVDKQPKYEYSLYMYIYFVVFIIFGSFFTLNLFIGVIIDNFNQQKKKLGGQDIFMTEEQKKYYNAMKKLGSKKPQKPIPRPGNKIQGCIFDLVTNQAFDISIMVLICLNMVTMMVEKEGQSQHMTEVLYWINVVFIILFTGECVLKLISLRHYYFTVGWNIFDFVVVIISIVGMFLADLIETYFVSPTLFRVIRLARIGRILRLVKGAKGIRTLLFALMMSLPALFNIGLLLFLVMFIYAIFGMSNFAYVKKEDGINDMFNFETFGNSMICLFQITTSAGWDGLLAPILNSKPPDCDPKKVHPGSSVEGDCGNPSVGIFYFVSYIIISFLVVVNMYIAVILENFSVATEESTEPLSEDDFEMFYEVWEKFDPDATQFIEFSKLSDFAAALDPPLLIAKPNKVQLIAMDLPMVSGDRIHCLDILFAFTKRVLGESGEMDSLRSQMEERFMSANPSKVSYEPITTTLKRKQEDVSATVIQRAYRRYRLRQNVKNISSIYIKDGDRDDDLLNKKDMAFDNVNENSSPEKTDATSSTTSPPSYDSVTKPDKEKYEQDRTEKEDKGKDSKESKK

Compound | IC50 [1] [nM] | Hu CYP3A4 mRNA Induction (10 uM POC) [2] [%] | Hu CYP3A4 mRNA Induction (10 uM POC) [3] [%]
COc1cc(C2CC(C(F)(F)F)C2)c(F)cc1-n1c(=O)ccc2cc(S(=O)(=O)Nc3ccon3)ccc21 (atropisomer, axis not shown; (P)) [Example 6, cis-(P)-1-(5-fluoro-2-methoxy-4-(3-(trifluoromethyl)cyclobutyl)phenyl)-N-(isoxazol-3-yl)-2-oxo-1,2-dihydroquinoline-6-sulfonamide] | 11 | – | –
COc1cc([C@H]2C[C@@](F)(C(F)(F)F)C2)c(F)cc1-n1c(=O)ccc2cc(S(=O)(=O)Nc3ccon3)ccc21 (atropisomer, axis not shown; (P)) [Example 8, trans-(P)-1-(5-fluoro-4-(3-fluoro-3-(trifluoromethyl)cyclobutyl)-2-methoxyphenyl)-N-(isoxazol-3-yl)-2-oxo-1,2-dihydroquinoline-6-sulfonamide] | – | 10.51 | –
COc1cc(C2CC(C(F)(F)F)C2)c(Cl)cc1-n1c(=O)ccc2cc(S(=O)(=O)Nc3ccon3)ccc21 (atropisomer, axis not shown; (P)) [Example 12, cis-(P)-1-(5-chloro-2-methoxy-4-((1S,3S)-3-(trifluoromethyl)cyclobutyl)phenyl)-N-(isoxazol-3-yl)-2-oxo-1,2-dihydroquinoline-6-sulfonamide] | 7 | – | –
COc1cc([C@H]2C[C@H](C(F)(F)F)C2)c(C)cc1-n1c(=O)ccc2cc(S(=O)(=O)Nc3ncccn3)ccc21 (atropisomer, axis not shown; (P)) [Example 37, trans-(P)-1-(2-methoxy-5-methyl-4-(3-(trifluoromethyl)cyclobutyl)phenyl)-2-oxo-N-(pyrimidin-2-yl)-1,2-dihydroquinoline-6-sulfonamide] | 62 | – | –
COc1cc([C@H]2C[C@H](C(F)(F)F)C2)c(F)cc1-n1c(=O)ccc2cc(S(=O)(=O)Nc3ncco3)ccc21 (atropisomer, axis not shown; (P)) [Example 43, (P)-1-(5-fluoro-2-methoxy-4-(3-(trifluoromethyl)cyclobutyl)phenyl)-N-(oxazol-2-yl)-2-oxo-1,2-dihydroquinoline-6-sulfonamide] | – | – | 68.28
COc1cc([C@H]2C[C@H](C(F)(F)F)C2)c(F)cc1-n1c(=O)ccc2c(F)c(S(=O)(=O)Nc3ccon3)ccc21 (atropisomer, axis not shown; (P)) [Example 46, trans-(P)-5-fluoro-1-(5-fluoro-2-methoxy-4-(3-(trifluoromethyl)cyclobutyl)phenyl)-N-(isoxazol-3-yl)-2-oxo-1,2-dihydroquinoline-6-sulfonamide] | – | – | 6.6
COc1cc(C23CC(C(F)(F)F)(C2)C3)c(F)cc1-n1c(=O)ccc2cc(S(=O)(=O)Nc3ncccn3)ccc21 (atropisomer, axis not shown; (P)) [Example 47, (P)-1-(5-fluoro-2-methoxy-4-(3-(trifluoromethyl)bicyclo[1.1.1]pentan-1-yl)phenyl)-2-oxo-N-(pyrimidin-2-yl)-1,2-dihydroquinoline-6-sulfonamide] | – | – | 19.64
COc1cc(C2CC(F)(F)C2)c(Cl)cc1-n1c(=O)ccc2cc(S(=O)(=O)Nc3ccon3)ccc21 (atropisomer, axis not shown; (P)) [Example 48, (P)-1-(5-chloro-4-(3,3-difluorocyclobutyl)-2-methoxyphenyl)-N-(isoxazol-3-yl)-2-oxo-1,2-dihydroquinoline-6-sulfonamide] | – | – | 110.2
COc1cc([C@H]2C[C@H](C(F)(F)F)C2)c(Cl)cc1-n1c(=O)ccc2cc(S(=O)(=O)Nc3ncco3)ccc21 (atropisomer, axis not shown; (P)) [Example 49, trans (P)-1-(5-chloro-2-methoxy-4-((1R,3R)-3-(trifluoromethyl)cyclobutyl)phenyl)-N-(oxazol-2-yl)-2-oxo-1,2-dihydroquinoline-6-sulfonamide] | – | – | 64.94
COc1cc(C2CC(C(C)(C)C)C2)c(F)cc1-n1c(=O)ccc2cc(S(=O)(=O)Nc3ccon3)ccc21 (racemic) [Example 2, 1-(4-(3-(tert-butyl)cyclobutyl)-5-fluoro-2-methoxyphenyl)-N-(isoxazol-3-yl)-2-oxo-1,2-dihydroquinoline-6-sulfonamide] | 25 | – | –
COc1cc([C@H]2C[C@@H](C(F)(F)F)C2)c(F)cc1-n1c(=O)ccc2cc(S(=O)(=O)Nc3ccon3)ccc21 (single isomer, unassigned) [Example 6, cis-(P)-1-(5-fluoro-2-methoxy-4-(3-(trifluoromethyl)cyclobutyl)phenyl)-N-(isoxazol-3-yl)-2-oxo-1,2-dihydroquinoline-6-sulfonamide] | – | – | 83.89
COc1cc([C@H]2C[C@H](C(F)(F)F)C2)c(F)cc1-n1c(=O)ccc2cc(S(=O)(=O)Nc3ccon3)ccc21 (single isomer, unassigned) [Example 7, trans-(P)-1-(5-fluoro-2-methoxy-4-(3-(trifluoromethyl)cyclobutyl)phenyl)-N-(isoxazol-3-yl)-2-oxo-1,2-dihydroquinoline-6-sulfonamide] | 7 | – | 16.35
COc1cc([C@H]2C[C@H](C(F)(F)F)C2)c(Cl)cc1-n1c(=O)ccc2cc(S(=O)(=O)Nc3ccon3)ccc21 (single isomer, unassigned) [Example 12] | – | – | 68.98
COc1cc([C@H]2C[C@H](C(F)(F)F)C2)c(Cl)cc1-n1c(=O)ccc2cc(S(=O)(=O)Nc3ccon3)ccc21 (single isomer, unassigned) [Example 13] | 6 | – | 46.85
COc1cc(C2CC(OC(F)(F)F)C2)c(F)cc1-n1c(=O)ccc2cc(S(=O)(=O)Nc3ccon3)ccc21 (single isomer, unassigned) [Example 44, cis-(P)-1-(5-fluoro-2-methoxy-4-(3-(trifluoromethoxy)cyclobutyl)phenyl)-N-(isoxazol-3-yl)-2-oxo-1,2-dihydroquinoline-6-sulfonamide] | 7 | – | –
COc1cc([C@H]2C[C@H](OC(F)(F)F)C2)c(F)cc1-n1c(=O)ccc2cc(S(=O)(=O)Nc3ccon3)ccc21 (single isomer, unassigned) [Example 45, trans-(P)-1-(5-fluoro-2-methoxy-4-(3-(trifluoromethoxy)cyclobutyl)phenyl)-N-(isoxazol-3-yl)-2-oxo-1,2-dihydroquinoline-6-sulfonamide] | – | – | 36.685
COc1cc(C2CC2)c(F)cc1-n1c(=O)ccc2cc(S(=O)(=O)Nc3ccon3)ccc21 [Compound X, 1-(4-cyclopropyl-5-fluoro-2-methoxyphenyl)-N-(isoxazol-3-yl)-2-oxo-1,2-dihydroquinoline-6-sulfonamide, reference compound] | – | – | 84.31
